Experimental data reported in patent US20080113900A1, “Pharmaceutical compositions and therapeutic applications for the use of a synthetic vitamin B12 derivative, glutathionylcobalamin” (priority 2006, published 2008).
Where “and” joins values, the source holds several entries; their conditions need not be identical. Equal entries are not always repeated.

Tested on: SK-HEP-1 cells
Assay: Protection of endothelial cells from H2O2-induced cell death (MTS assay)
Format: cell-based, human
Parameters: key to Cell viability (MTS assay): cell viability as % survival
Conditions: for Cell viability (MTS assay): SK-HEP-1, n = 6 replicates

With `CC(=O)NC(C[S-])C(=O)O.CC1=C2N=C(C=C3N=C(C(C)=C4[N-]C(C(CC(N)=O)C4(C)CCC(=O)NCC(C)OP(=O)([O-])OC4C(CO)OC(n5cnc6cc(C)c(C)cc65)C4O)C4(C)N=C1C(CCC(N)=O)C4(C)CC(N)=O)C(CCC(N)=O)C3(C)C)C(CCC(N)=O)C2(C)CC(N)=O.[Co+3]` [NACCbl, N-acetyl-L-cysteinylcobalamin] the Survival (NACCbl 30 μM, above 25 μM H2O2) was “below 60%”, the “Cell viability (MTS assay)” value (compound 30 μM two hours, then H2O2 0 μM) was 102.9844 and 100.8053 and 103.2212 and 107.9583 and 101.8948 and 98.44 and the “Cell viability (MTS assay)” value (compound 30 μM two hours, then H2O2 0.781 μM a further two hours) was 93.46 and 102.7949 and 99.24 and 101.3738 and 103.2686 and 95.45. The “Cell viability (MTS assay)” value (compound 30 μM two hours, then H2O2 1.56 μM a further two hours) was 98.53 and 91.38 and 98.72 and 100.1421 and 89.77 and 96.12, the “Cell viability (MTS assay)” value (compound 30 μM two hours, then H2O2 3.125 μM a further two hours) was 88.2 and 93.18 and 92.89 and 99.76 and 92.42 and 91.8 and the “Cell viability (MTS assay)” value (compound 30 μM two hours, then H2O2 6.25 μM a further two hours) was 88.2 and 87.59 and 82.14 and 81.57 and 78.07 and 77.12. For the same compound, the “Cell viability (MTS assay)” value (compound 30 μM two hours, then H2O2 12.5 μM a further two hours) was 77.17 and 76.98 and 76.6 and 67.12 and 77.6883 and 74.14, the “Cell viability (MTS assay)” value (compound 30 μM two hours, then H2O2 25 μM a further two hours) was 67.12 and 66.75 and 61.87 and 56.18 and 55.3766 and 55.95 and the “Cell viability (MTS assay)” value (compound 30 μM two hours, then H2O2 50 μM a further two hours) was 50.21 and 48.27 and 44.955 and 45.71 and 48.18 and 44.58. The “Cell viability (MTS assay)” value (compound 30 μM two hours, then H2O2 100 μM a further two hours) was 29.99 and 23.97 and 19.56 and 18.901 and 17.53 and 20.89, the “Cell viability (MTS assay)” value (compound concentration 1.562, 2 hours, then 25 μM H2O2 24 hours) was 4.677 and 1.845 and 5.27 and 1.647 and 4.348 and 5.599 and the “Cell viability (MTS assay)” value (compound concentration 3.125, 2 hours, then 25 μM H2O2 24 hours) was 26.8116 and 19.5 and 35.84 and 30.5 and 35.24 and 33.
